Columns and labels:
acute ischemic stroke = conditions: Shuaib et al. N Engl J Med 2007; cited from earlier work
[1] = system: mammography-established dense breasts; experiment: Treatment of dense breasts: oral reduced TEMPOL in a person; assay type: in vivo, human
Protocol: The reduced form of TEMPOL (TEMPOL-H) or equivalent pharmacologically-active spin label/spintrap is prepared by mixing together 2 grams of TEMPOL or a pharmacologically effective amount of another spin-label or spin trap such as methynitrosopropane, 20 grams of ascorbic acid or other reducing compound in 100 ml of distilled water. The formulation is used as is. The solution is slightly-bitter. The formulation can be administered diluted in a suitable liquid such as juice, tea, or coffee. An equivalent dry form as 10 mg of tempol mixed with 100 mg of ascorbic acid or equivalent reducing substance can be easily prepared in capsule or tablet form.
One-half ml of the above solution, comprising 10 mg TEMPOL plus 100 mg ascorbic acid, was administered orally once a day to a 50 kg person with mammography-established dense breasts.

breast density = experiment: Extemporaneous oral TEMPOL-H treatment for fibrocystic disease of breast; assay type: in vivo, human; conditions: patient

For `CC(C)(C)[N+]([O-])=Cc1ccc(S(=O)(=O)[O-])cc1S(=O)(=O)[O-].[Na+].[Na+]` [NXY-059, disulfonyl PBN], the neuroprotective efficacy (acute ischemic stroke) is given as “effective in animal models, but not in humans”.

In the case of `CC1(C)CC(O)CC(C)(C)N1O` [TEMPOL-H, the hydroxylamine reduced form of the nitroxide 4-hydroxy-2,2,6,6-tetramethylpiperidin-1-yloxy], the “mammographic clearing of breast densities” value ([1]; 10 mg TEMPOL plus 100 mg ascorbic acid orally once a day, 50 kg person, first results after several weeks of treatment) is reported as “significant mammographic clearing of breast densities”, the “breast densities on cessation of treatment” value ([1]; cessation of treatment for a few weeks) is reported as “eventually reappear on cessation of treatment for a few weeks” and the “breast densities upon reinstatement of treatment” value ([1]; reinstatement of treatment) is reported as “breast densities reoccur”. For the same compound, the “clinical signs and symptoms upon cessation of treatment” value (breast density; after cessation of treatment) was “reappeared within a few weeks”, the “clinical signs and symptoms upon resumption of treatment” value (breast density; after resumption of treatment) was “again regressed” and the “clearing of breast density” value (breast density; oral formulation of TEMPOL-H) was “significant clearing of breast density”.

With `CC1(C)CC(O)CC(C)(C)N1[O]` [Tempol, 4-hydroxy-2,2,6,6-tetramethylpiperidin-1-yloxy] the “efficacy of unreduced Tempol itself” value ([1]; same doses as reduced TEMPOL (10 mg)) was “effective at the same doses”.
